Reference: patent publication US11053241B2, “TYK2 inhibitors and uses thereof” (Nimbus Lakshmi, Inc., priority 2018, dated 2021)

Each compound was assayed against human TYK2 (JH2domain-pseudokinase) (Homo sapiens (Human), UniProt P29597) (assay: TYK2 JH2 Domain Binding Assay (KINOMEscan)). Settings: 11-point 3-fold dilution, top concentration 30,000 nM, duplicate.
Procedure: Binding constants for compounds of the present invention against the JH2 domain were determined by the following protocol for a KINOMEscan® assay (DiscoveRx). A fusion protein of a partial length construct of human TYK2 (JH2domain-pseudokinase) (amino acids G556 to D888 based on reference sequence NP_003322.3) and the DNA binding domain of NFkB was expressed in transiently transfected HEK293 cells. From these HEK 293 cells, extracts were prepared in M-PER extraction buffer (Pierce) in the presence of Protease Inhibitor Cocktail Complete (Roche) and Phosphatase Inhibitor Cocktail Set II (Merck) per manufacturers' instructions. The TYK2(JH2domain-pseudokinase) fusion protein was labeled with a chimeric double-stranded DNA tag containing the NFkB binding site (5′-GGGAATTCCC-3′) fused to an amplicon for qPCR readout, which was added directly to the expression extract (the final concentration of DNA-tag in the binding reaction is 0.1 nM).
Streptavidin-coated magnetic beads (Dynal M280) were treated with a biotinylated small molecule ligand for 30 minutes at room temperature to generate affinity resins for the binding assays. The liganded beads were blocked with excess biotin and washed with blocking buffer (SeaBlock (Pierce), 1% BSA, 0.05% Tween 20, 1 mM DTT) to remove unbound ligand and to reduce nonspecific binding.
The binding reaction was assembled by combining 16 μl of DNA-tagged kinase extract, 3.8 μl liganded affinity beads, and 0.18 μl test compound (PBS/0.05% Tween 20/10 mM DTT/0.1% BSA/2 μg/ml sonicated salmon sperm DNA). Extracts were used directly in binding assays without any enzyme purification steps at a ≥10,000-fold overall stock dilution (final DNA-tagged enzyme concentration <0.1 nM). Extracts were loaded with DNA-tag and diluted into the binding reaction in a two step process. First extracts were diluted 1:100 in 1× binding buffer (PBS/0.05% Tween 20/10 mM DTT/0.1% BSA/2 μg/ml sonicated salmon sperm DNA) containing 10 nM DNA-tag. This dilution was allowed to equilibrate at room temperature for 15 minutes and then subsequently diluted 1:100 in 1× binding buffer. All reactions were performed in polypropylene 384-well plates. Each was a final volume of 0.02 mL. Assays were incubated with shaking for 1 hour at room temperature. Then the beads were pelleted and washed with wash buffer (1×PBS, 0.05% Tween 20) to remove displaced kinase and test compound. The washed based were re-suspended in elution buffer (1×PBS, 0.05% Tween 20, 0.5 μM non-biotinylated affinity ligand) and incubated at room temperature with shaking for 30 minutes. The kinase concentration in the eluates was measured by qPCR. qPCR reactions were assembled by adding 2.5 μL of kinase eluate to 7.5 μL of qPCR master mix containing 0.15 μM amplicon primers and 0.15 μM amplicon probe. The qPCR protocol consisted of a 10 minute hot start at 95° C., followed by 35 cycles of 95° C. for 15 seconds, 60° C. for 1 minute.
Test compounds were prepared as 111× stocks in 100% DMSO. Kd values were determined using an 11-point 3-fold compound dilution series with three DMSO control points. All compounds for Kd measurements are distributed by acoustic transfer (non-contact dispensing) in 100% DMSO. The compounds were then diluted directly into the assays such that the final concentration of DMSO was 0.9%. The Kd values were determined using a compound top concentration of 30,000 nM. Kd measurements were performed in duplicate.
Binding constants (Kds) were calculated with a standard dose-response curve using the Hill equation: […]
The Hill Slope was set to −1. Curves were fitted using a non-linear least square fit with the Levenberg-Marquardt algorithm (Levenberg, K., A method for the solution of certain non-linear problems in least squares, Q. Appl. Math. 2, 164-168 (1944)).

Chain of human TYK2 (JH2domain-pseudokinase) (P29597 556-888): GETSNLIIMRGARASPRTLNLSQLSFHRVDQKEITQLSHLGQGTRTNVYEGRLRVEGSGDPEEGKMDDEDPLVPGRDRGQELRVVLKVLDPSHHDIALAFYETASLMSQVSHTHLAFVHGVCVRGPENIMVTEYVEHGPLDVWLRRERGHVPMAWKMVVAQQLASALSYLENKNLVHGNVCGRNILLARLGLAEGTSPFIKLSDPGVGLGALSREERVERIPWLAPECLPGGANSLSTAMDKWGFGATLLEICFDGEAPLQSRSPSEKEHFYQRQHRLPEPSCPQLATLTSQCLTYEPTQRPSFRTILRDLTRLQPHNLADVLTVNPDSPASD

Structure (SMILES)	Kd [nM]
CNC(=O)c1cnc(NC(=O)C2CC2)c2[nH]c(-c3ccc(-c4ccn(C)n4)cc3F)cc12 [Compound I-101]	0.2 to 1
CNC(=O)c1cnc(NC(=O)C2CC2)c2[nH]c(-c3cccn(C4CCCOC4)c3=O)cc12 (stereo not drawn) [Compound I-43, 7-(cyclopropanecarboxamido)-N-methyl-2-(2-oxo-1-(tetrahydro-2H-pyran-3-yl)-1,2-dihydropyridin-3-yl)-1H-pyrrolo[2,3-c]pyridine-4-carboxamide]	0.2 to 1
CNC(=O)c1cnc(NC(=O)C2CC2)c2[nH]c(-c3c(F)cc(-c4nccn4C)cc3F)cc12 [Compound I-77, 7-(cyclopropanecarboxamido)-2-(2,6-difluoro-4-(1-methyl-1H-imidazol-2-yl)phenyl)-N-methyl-1H-pyrrolo[2,3-c]pyridine-4-carboxamide]	< 0.2
CNC(=O)c1cnc(NC(=O)C2CC2)c2[nH]c(-c3ccn(-c4cnn(C)c4)n3)cc12 [Compound I-80, 7-(cyclopropanecarboxamido)-N-methyl-2-(1′-methyl-1′H-[1,4′-bipyrazol]-3-yl)-1H-pyrrolo[2,3-c]pyridine-4-carboxamide]	< 0.2
CNC(=O)c1cnc(NC(=O)C2CC2)c2[nH]c(-c3ccc(C(=O)N4CC(F)(F)C4)cn3)cc12 [Compound I-53, 7-(cyclopropanecarboxamido)-2-(5-(3,3-difluoroazetidine-1-carbonyl)pyridin-2-yl)-N-methyl-1H-pyrrolo[2,3-c]pyridine-4-carboxamide]	0.2 to 1
CNC(=O)c1cnc(NC(=O)C2CC2)c2[nH]c(-c3cccc(OC4CCOCC4)c3F)cc12 [Compound I-85, 7-(cyclopropanecarboxamido)-2-(2-fluoro-3-((tetrahydro-2H-pyran-4-yl)oxy)phenyl)-N-methyl-1H-pyrrolo[2,3-c]pyridine-4-carboxamide]	0.2 to 1
CNC(=O)c1cnc(NC(=O)C2CC2)c2[nH]c(-c3cccc(-c4cn5c(n4)COCC5)c3F)cc12 [Compound I-79, 7-(cyclopropanecarboxamido)-2-(3-(5,6-dihydro-8H-imidazo[2,1-c][1,4]oxazin-2-yl)-2-fluorophenyl)-N-methyl-1H-pyrrolo[2,3-c]pyridine-4-carboxamide]	< 0.2
CNC(=O)c1cnc(NC(=O)C2CC2)c2[nH]c(-c3cccc(-c4cn(C)c(C)n4)c3F)cc12 [Compound I-67]	< 0.2
CNC(=O)c1cnc(NC(=O)C2CC2)c2[nH]c(-c3cccc(-n4nccn4)c3F)cc12 [Compound I-63, 7-(cyclopropanecarboxamido)-2-(2-fluoro-3-(2H-1,2,3-triazol-2-yl)phenyl)-N-methyl-1H-pyrrolo[2,3-c]pyridine-4-carboxamide]	0.2 to 1
CNC(=O)c1cnc(NC(=O)C2CC2)c2[nH]c(-c3ccc(OC)cc3[C@@H]3COCCO3)cc12 [Compound I-72]	> 10
CNC(=O)c1cnc(NC(=O)C2CC2)c2[nH]c(-c3ccc(-c4ncc(C)n4C)cc3F)cc12 [Compound I-68, 7-(cyclopropanecarboxamido)-2-(4-(1,5-dimethyl-1H-imidazol-2-yl)-2-fluorophenyl)-N-methyl-1H-pyrrolo[2,3-c]pyridine-4-carboxamide]	< 0.2
CNC(=O)c1cnc(NC(=O)C2CC2)c2[nH]c(-c3ccc(-c4nncn4C)cc3F)cc12 [Compound I-62, 7-(cyclopropanecarboxamido)-2-(2-fluoro-4-(4-methyl-4H-1,2,4-triazol-3-yl)phenyl)-N-methyl-1H-pyrrolo[2,3-c]pyridine-4-carboxamide]	< 0.2
CNC(=O)c1cnc(NC(=O)C2CC2)c2[nH]c(-c3c(F)cc(-c4nccn4C)cc3N3CC[C@@H](OC)C3)cc12 [Compound I-90, (R)-7-(cyclopropanecarboxamido)-2-(2-fluoro-6-(3-methoxypyrrolidin-1-yl)-4-(1-methyl-1H-imidazol-2-yl)phenyl)-N-methyl-1H-pyrrolo[2,3-c]pyridine-4-carboxamide]	< 0.2
CNC(=O)c1cnc(NC(=O)C2CC2)c2[nH]c(-c3ccc(-n4ncnc4C)cc3F)cc12 [Compound I-65, 7-(cyclopropanecarboxamido)-2-(2-fluoro-4-(5-methyl-1H-1,2,4-triazol-1-yl)phenyl)-N-methyl-1H-pyrrolo[2,3-c]pyridine-4-carboxamide]	< 0.2
CNC(=O)c1cnc(NC(=O)C2CC2)c2[nH]c(-c3ccc(-c4ncc5n4CCCC5)cc3F)cc12 [Compound I-75, 7-(cyclopropanecarboxamido)-2-(2-fluoro-4-(5,6,7,8-tetrahydroimidazo[1,5-a]pyridin-3-yl)phenyl)-N-methyl-1H-pyrrolo[2,3-c]pyridine-4-carboxamide]	< 0.2
CNC(=O)c1cnc(Nc2ccn(C)n2)c2[nH]c(-c3cccc(-c4cnc(C)o4)c3F)cc12 [Compound I-99, 2-(2-fluoro-3-(2-methyloxazol-5-yl)phenyl)-N-methyl-7-((1-methyl-1H-pyrazol-3-yl)amino)-1H-pyrrolo[2,3-c]pyridine-4-carboxamide]	< 0.2
CNC(=O)c1cnc(NC(=O)C2CC2)c2[nH]c(-c3cccn(C4CCCOC4)c3=O)cc12 (stereo in doubt) [Compound I-55, (S)-7-(cyclopropanecarboxamido)-N-methyl-2-(2-oxo-1-(tetrahydro-2H-pyran-3-yl)-1,2-dihydropyridin-3-yl)-1H-pyrrolo[2,3-c]pyridine-4-carboxamide]	0.2 to 1
CNC(=O)c1cnc(NC(=O)C2CC2)c2[nH]c(-c3cccc(N4CCC4)c3C#N)cc12 [Compound I-41, 2-(3-(azetidin-1-yl)-2-cyanophenyl)-7-(cyclopropanecarboxamido)-N-methyl-1H-pyrrolo[2,3-c]pyridine-4-carboxamide]	1 to 10
CNC(=O)c1cnc(Nc2ccn(C)n2)c2[nH]c(-c3cccc(-c4cn5c(n4)COCC5)c3F)cc12 [Compound I-100, 2-(3-(5,6-dihydro-8H-imidazo[2,1-c][1,4]oxazin-2-yl)-2-fluorophenyl)-N-methyl-7-((1-methyl-1H-pyrazol-3-yl)amino)-1H-pyrrolo[2,3-c]pyridine-4-carboxamide]	< 0.2
CNC(=O)c1cnc(NC(=O)C2CC2)c2[nH]c(-c3ccc(-c4nc(C)c(C)n4C)cc3F)cc12 [Compound I-74, 7-(cyclopropanecarboxamido)-2-(2-fluoro-4-(1,4,5-trimethyl-1H-imidazol-2-yl)phenyl)-N-methyl-1H-pyrrolo[2,3-c]pyridine-4-carboxamide]	< 0.2
CNC(=O)c1cnc(NC(=O)C2CC2)c2[nH]c(-c3ccc(C(=O)N4CC(F)(F)C4)cc3F)cc12 [Compound I-98, 7-(cyclopropanecarboxamido)-2-(4-(3,3-difluoroazetidine-1-carbonyl)-2-fluorophenyl)-N-methyl-1H-pyrrolo[2,3-c]pyridine-4-carboxamide]	< 0.2
CNC(=O)c1cnc(NC(=O)C2CC2)c2[nH]c(-c3cccc(-c4cnn(C)c4)c3C#N)cc12 [Compound I-45, 2-(2-cyano-3-(1-methyl-1H-pyrazol-4-yl)phenyl)-7-(cyclopropane-carboxamido)-N-methyl-1H-pyrrolo[2,3-c]pyridine-4-carboxamide]	0.2 to 1
CNC(=O)c1cnc(NC(=O)C2CC2)c2[nH]c(-c3cccc(-c4cnc(C)o4)c3F)cc12 [Compound I-81, 7-(cyclopropanecarboxamido)-2-(2-fluoro-3-(2-methyloxazol-5-yl)phenyl)-N-methyl-1H-pyrrolo[2,3-c]pyridine-4-carboxamide]	< 0.2
CNC(=O)c1cnc(NC(=O)C2CC2)c2[nH]c(N3CCCCC3)cc12 [Compound I-96, 7-(cyclopropanecarboxamido)-N-methyl-2-(piperidin-1-yl)-1H-pyrrolo[2,3-c]pyridine-4-carboxamide]	> 10
